Test results published in US10335372B2, “Compositions with modified nucleases targeted to viral nucleic acids and methods of use for prevention and treatment of viral diseases” (priority 2004, dated 2019).
“And” between values parts separate entries of the source, which are not always exact repeats. Equal values may be shown once. Read-outs that look alike come from different tables or passages of the source. Where no end group is shown, it is not given here. [ ]: non-standard residue; d: D form.

How the values were obtained:
dsDNA [1] = settings: physiological monovalent cation strength; cited from earlier work
HepG2 VV-infected cells = format: cell-based, human; settings: 30 min incubation
Protocol: (§1) The cellular uptake of bovine DNase I (DNase), DNase-PEG and DNase-PEG-R8 complex is evaluated using the HepG2 cell line (human hepatocarcinoma cells ATCC, No-HB-8065). […] DNase I is labeled with fluorescent rodamine (*) according to the manufacturer's instruction (Pierce, Inc., Rockford, Ill.). Penetration of *DNase-PEG-K-R8 into HepG2 cells is compared to that of *DNase and *DNase-PEG after 30 min of incubation with HepG2 cells in DMEM at 37° C.
(§2) To maintain the cells the growth medium 199 is used.

HepG2 intact cells = assay: Cellular uptake of rhodamine-labeled DNase complexes, fluorimeter; format: cell-based, human; settings: 30 min incubation
Protocol: as §1, §2

S-protein = S-protein (Bos taurus, UniProt P61823); settings: N-terminal residues 1-15; cited from earlier work
avian adenovirus = system: avian adenovirus; design: species or system chickens; settings: in vivo
[2] = system: herpes virus simplex I (HSV-I); assay: Effect of tri-peptide P3 and P-PEG-R8 on replication of HSV-1 in vitro; format: cell-based; settings: for HSV Titer: single values
[3] = system: Herpes simplex virus, type I (HSV-1); assay: Anti-HSV-1 activity in HEP-2 cells; format: cell-based; settings: for HSV Titer: single values
cytomegalovirus (CMV) = assay: Anti-CMV activity in HEP-2 cells; settings: for CMV Titer: single values
mouse leukemia virus [4] = assay: Treatment of viral lymphatic leukemia in 9-10 month old AKR mice; format: in vivo; settings: 5 kUA/g s.c. every four days
Protocol: To study the treatment effect of DNase and TDNase, the experiment is carried out on 9-10 month old AKR mice with manifestations of lymphoid leukemia. A significant increase in the size of lymph nodes, thymus, liver and spleen and high mitotic index in lymphoid tissues is observed in these animals. The treated groups include 24 mice in each while the control group includes 19 mice. Administration of DNase I and TDNase every four days s.c., in a dose of 5,000 KuU/g body weight, results in a decrease of lymphatic tissues and mitotic index to normal levels, and in an increase in longevity of animals. However, a more profound effect is obtained in animals receiving TDNase than DNase, and receiving TDNase-PEG than TDNase, as is shown in Table 25.

cytomegalovirus = assay: Antiviral activity of modified DNase I against cytomegalovirus in cell culture; settings: 500 UA/ml, 48 h at 37° C.; for Virus Titer: single values
Vaccinia virus = format: cell-based; settings: 500 KuU/ml, 48 h at 37° C.
mouse leukemia virus [5] = assay: Prevention of leukemia development in AKR mice; format: in vivo; settings: 5,000 KuU/g s.c. every second day for a month
Source text: Leukemia in AKR mice is known to be promoted by mouse leukemia virus. The lymphoid tissues of AKR mice contain mouse leukemia virus, and spontaneously develop leukemia, at the age of 6-8 months.

HIV-1 (HXB2) = assay: Plaque reduction assay in CD4+ HeLa cells of serially passaged virus; format: cell-based
HIV-1 = HIV-1 infectivity on serial passage in MT-4 cells with drug; format: cell-based
honeybee paralysis virus = format: in vivo, honeybees; settings: of 100 infected
Protocol: Infectious titer of HBVP is […] per ml. The honeybees are infected by feeding the viral emulsion. Insects are sprayed by an aerosol of enzyme diluted in physiological solution 3 hours before the inoculation of virus. […] Treatment of insects 6 hours after inoculation of virus still protected them from development of disease.

[6] = system: ssRNA equine encephalitis virus; format: cell-based; settings: 500 UA/ml
dsRNA reovirus = assay: RNase A on virus replication in HEP-2 cells; settings: 200 UA/ml
ssRNA coronavirus = assay: RNase A on virus replication in HEP-2 cells; settings: 200 UA/ml
dsDNA [7] = assay: Hydrolysis of dsDNA in human serum by native, multi-charged and actin-resistant DNase I variants
ssRNA corona virus = assay: Antiviral efficacy of pegylated human RNase I

Molecule: EndoG: sugar-nonspecific 29 kDa human endonuclease
- inhibition (dsDNA [1]): about 15 fold

Molecule: *DNase
- OD (430 nm), cellular uptake (HepG2 VV-infected cells): 48
- OD (430 nm), cellular uptake (HepG2 intact cells): 37

Molecule: KETAAAKFERQHMDS [bovine S-peptide]
- Kd (S-protein): < 0.001 µM

Molecule: [dS]-His-[dD] [P3]
- chickens that survive (avian adenovirus): 19
- Average Titer ([2]; 10 UA/ml): 5.7 logTCD50/ml
- HSV Titer ([2]; 10 UA/ml): 5.8 logTCD50/ml and 5.6 logTCD50/ml and 5.7 logTCD50/ml
- Average Titer ([2]; 50 UA/ml): 5.4 logTCD50/ml
- HSV Titer ([2]; 50 UA/ml): 5.5 logTCD50/ml and 5.4 logTCD50/ml and 5.3 logTCD50/ml
- Average Titer ([2]; 100 UA/ml): 5.1 logTCD50/ml
- HSV Titer ([2]; 100 UA/ml): 5.2 logTCD50/ml and 5.3 logTCD50/ml and 5.1 logTCD50/ml
- Average Titer ([2]; 500 UA/ml): 4.8 logTCD50/ml
- HSV Titer ([2]; 500 UA/ml): 4.8 logTCD50/ml and 4.9 logTCD50/ml and 4.7 logTCD50/ml

Molecule: DNase
- Average Titer ([3]; 10 UA/ml): 5.4 logTCD50/ml
- HSV Titer ([3]; 10 UA/ml): 5.4 logTCD50/ml and 5.5 logTCD50/ml and 5.3 logTCD50/ml
- Average Titer ([3]; 50 UA/ml): 5.1 logTCD50/ml
- HSV Titer ([3]; 50 UA/ml): 5.1 logTCD50/ml and 5.0 logTCD50/ml
- Average Titer ([3]; 100 UA/ml): 4.5 logTCD50/ml
- HSV Titer ([3]; 100 UA/ml): 4.6 logTCD50/ml and 4.5 logTCD50/ml and 4.7 logTCD50/ml
- Average Titer ([3]; 500 UA/ml): 3.8 logTCD50/ml
- HSV Titer ([3]; 500 UA/ml): 3.8 logTCD50/ml and 3.9 logTCD50/ml and 3.7 logTCD50/ml
- Average Titer (cytomegalovirus (CMV); 50 UA/ml): 5.1 logTCD50/ml
- CMV Titer (cytomegalovirus (CMV); 50 UA/ml): 5.1 logTCD50/ml and 5.0 logTCD50/ml
- Average Titer (cytomegalovirus (CMV); 100 UA/ml): 4.5 logTCD50/ml
- CMV Titer (cytomegalovirus (CMV); 100 UA/ml): 4.6 logTCD50/ml and 4.5 logTCD50/ml and 4.7 logTCD50/ml
- Average Titer (cytomegalovirus (CMV); 500 UA/ml): 3.8 logTCD50/ml
- CMV Titer (cytomegalovirus (CMV); 500 UA/ml): 3.8 logTCD50/ml and 3.9 logTCD50/ml and 3.7 logTCD50/ml
- Average Titer (cytomegalovirus (CMV); [0] UA/ml): 5.5 logTCD50/ml
- CMV Titer (cytomegalovirus (CMV); [0] UA/ml): 5.4 logTCD50/ml and 5.6 logTCD50/ml and 5.5 logTCD50/ml
- Liver (mouse leukemia virus [4]): 941 ± 33 g
- Longevity (weeks) (mouse leukemia virus [4]): 16 ± 1.0 weeks
- Mitotic Index (mouse leukemia virus [4]): 0.18 ± 0.02
- Average Titer (cytomegalovirus): 6.5 logTCD50/0.1 ml
- Virus Titer (cytomegalovirus): 6.3 logTCD50/0.1 ml and 6.4 logTCD50/0.1 ml and 6.5 logTCD50/0.1 ml
- Average log TCD50 (Vaccinia virus): 4.7 log TCD50
- log TCD50 (Vaccinia virus; single values): 4.6 log TCD50 and 4.8 log TCD50
- development of leukemia (mouse leukemia virus [5]): preclude the development of leukemia

Molecule: Cc1cn([C@H]2C[C@H](N=[N+]=[N-])[C@@H](CO)O2)c(=O)[nH]c1=O [AZT]
- shift in sensitivity (HIV-1 (HXB2); sixth passage): > 1000 fold
- IC50 (HIV-1 (HXB2); virus of fourth passage in drug-treated MT-4 cells): > 50 µM
- IC50 (HIV-1 (HXB2); virus of sixth passage): > 250 µM
- HIV-1 infectivity (HIV-1; passage 0): 2.8 log10TCID50/ml
- HIV-1 infectivity (HIV-1; passage 1): 2.6 log10TCID50/ml
- HIV-1 infectivity (HIV-1; passage 2): 3.8 log10TCID50/ml
- HIV-1 infectivity (HIV-1; passage 5): 4.7 log10TCID50/ml
- HIV-1 infectivity (HIV-1; passage 15): 5.9 log10TCID50/ml

Molecule: [dS]-His
- chickens that survive (avian adenovirus): 18

B1: RNase A: bovine RNase A (Examples 21, 23, 24, 28, 37, 40) (protein, UniProt P61823 27-150, looked up)
Ribonuclease pancreatic: KETAAAKFERQHMDSSTSAASSSNYCNQMMKSRNLTKDRCKPVNTFVHESLADVQAVCSQKNVACKNGQTNCYQSYSTMSITDCRETGSSKYPNCAYKTTQANKHIIVACEGNPYVPVHFDASV
- Surviving Honeybees (honeybee paralysis virus; 200 UA/ml): 4
- Surviving Honeybees (honeybee paralysis virus; 500 UA/ml): 11
- Surviving Honeybees (honeybee paralysis virus; 1000 UA/ml): 67
- Surviving Honeybees (honeybee paralysis virus; 1500 UA/ml): 100
- Average Titer [6]: 5.26 logTCD50/0.1 ml
- Titer ([6]; single values): 5.2 logTCD50/0.1 ml and 5.4 logTCD50/0.1 ml
- Average Titer (dsRNA reovirus): 4.0 logTCD50/0.1 ml
- Titer (dsRNA reovirus; single values): 4.0 logTCD50/0.1 ml and 4.1 logTCD50/0.1 ml and 3.9 logTCD50/0.1 ml
- Average Titer (ssRNA coronavirus): 1.5 logTCD50/0.1 ml
- Titer (ssRNA coronavirus; single values): 1.4 logTCD50/0.1 ml and 1.6 logTCD50/0.1 ml and 1.5 logTCD50/0.1 ml

B2: arDNase (+1): actin-resistant human DNase I with substitution A114R (protein, UniProt P24855 23-282, looked up, variant A114R)
Deoxyribonuclease-1: LKIAAFNIQTFGETKMSNATLVSYIVQILSRYDIALVQEVRDSHLTAVGKLLDNLNQDAPDTYHYVVSEPLGRNSYKERYLFVYRPDQVSAVDSYYYDDGCEPCGNDTFNREPRIVRFFSRFTEVREFAIVPLHAAPGDAVAEIDALYDVYLDVQEKWGLEDVMLMGDFNAGCSYVRPSQWSSIRLWTSPTFQWLIPDSADTTATPTHCAYDRIVVAGMLLRGAVVPDSALPFNFQAAYGLSDQLAQAISDHYPVEVMLK
- Average T50 (min) 50% DNA hydrolysis (dsDNA [7]): 3 min
- Time T50 (min) 50% DNA hydrolysis (dsDNA [7]; single values of triplicate): 2 min and 3 min and 4 min

B3: PEG-DNase: human DNase I conjugated with PEG (Example 14) (conjugate, UniProt P24855 23-282, looked up)
Deoxyribonuclease-1: LKIAAFNIQTFGETKMSNATLVSYIVQILSRYDIALVQEVRDSHLTAVGKLLDNLNQDAPDTYHYVVSEPLGRNSYKERYLFVYRPDQVSAVDSYYYDDGCEPCGNDTFNREPAIVRFFSRFTEVREFAIVPLHAAPGDAVAEIDALYDVYLDVQEKWGLEDVMLMGDFNAGCSYVRPSQWSSIRLWTSPTFQWLIPDSADTTATPTHCAYDRIVVAGMLLRGAVVPDSALPFNFQAAYGLSDQLAQAISDHYPVEVMLK
modifications: PEG
- Average Titer (cytomegalovirus): 3.4 logTCD50/0.1 ml
- Virus Titer (cytomegalovirus): 3.2 logTCD50/0.1 ml and 3.4 logTCD50/0.1 ml and 3.5 logTCD50/0.1 ml

B4: (PNA)2-PEG-DNase: 18-mer bis-PNA complementary to viral DNA conjugated with forked 2×20 kDa PEG and human DNase I (conjugate, UniProt P24855 23-282, looked up)
Deoxyribonuclease-1: LKIAAFNIQTFGETKMSNATLVSYIVQILSRYDIALVQEVRDSHLTAVGKLLDNLNQDAPDTYHYVVSEPLGRNSYKERYLFVYRPDQVSAVDSYYYDDGCEPCGNDTFNREPAIVRFFSRFTEVREFAIVPLHAAPGDAVAEIDALYDVYLDVQEKWGLEDVMLMGDFNAGCSYVRPSQWSSIRLWTSPTFQWLIPDSADTTATPTHCAYDRIVVAGMLLRGAVVPDSALPFNFQAAYGLSDQLAQAISDHYPVEVMLK
modifications: forked 2x20 kDa PEG, bis-PNA
- Average Titer (cytomegalovirus): 0.3 logTCD50/0.1 ml
- Virus Titer (cytomegalovirus): 0.2 logTCD50/0.1 ml and 0.3 logTCD50/0.1 ml and 0.4 logTCD50/0.1 ml

B5: pegylated RNase I: wild-type recombinant human RNase I reacted with mPEG-SS (conjugate, UniProt P07998 29-156, looked up)
Ribonuclease pancreatic: KESRAKKFQRQHMDSDSSPSSSSTYCNQMMRRRNMTQGRCKPVNTFVHEPLVDVQNVCFQEKVTCKNGQGNCYKSNSSMHITDCRLTNGSRYPNCAYRTSPKERHIIVACEGSPYVPVHFDASVEDST
modifications: mPEG-SS
- antiviral efficacy compared with unpegylated enzyme (ssRNA corona virus): enhances its antiviral efficacy
